The source of these data is patent publication US10167258B2, “Inhibitors of mitochondrial pyruvate dehydrogenase kinase isoforms 1-4 and uses thereof” (The Board of Regents of the University of Texas System, priority 2013, dated 2019).

Data set [1] has as its system phosphorylated E1α subunit. As to the kind of experiment: Western blotting of phosphorylated E1α subunit in tissues of DIO mice. The class given is in vivo. The note with it: single dose 70 mg/kg IP, 10 h. The protocol: Six- to eight-week old C57BL/6J male mice were obtained from the local campus breeding colony at UT Southwestern Medical Center (Dallas, Tex.) and randomized into two groups: vehicle- and PS10-treated. Prior to the treatment, mice were fed with a 60% high-fat diet, which contained 32% saturated and 68% unsaturated fat (catalog number: D12492, Research Diet Inc. New Brunswick, N.J.), for eight to ten weeks to produce DIO animals. PS-10 was dissolved in 100% DMSO and then diluted to make a 10% DMSO aqueous solution containing 17.5% (w/v) (2-hydroxypropyl)-β-cyclodextrin for delivery. Animals were dosed at mid-day by intraperitoneal (IP) injections at 70 mg/kg using 1-ml syringe and 30-gauge needle. The length of the treatment is indicted in each experiment. At 10 h after the last injection, animals were euthanized using carbon dioxide asphyxiation followed by cervical dislocation and dissection. Blood was harvested by cardiac puncture and stored on ice. Acidified citrate dextrose (ACD) was used as an anticoagulant. Immediately after blood collection, heart, liver, kidneys and both hind-leg quadriceps muscles were removed and snap frozen in liquid nitrogen. Average ischemia time before organ harvest was about 2 to 3 min. Blood was centrifuged in an Eppendorf 5415R refrigerated microcentrifuge at 9,300×g for 5 min to isolate plasma, which was subsequently stored at −80° C. […]

The nature of data set [2]: Solubility in DMSO used in the formulation. The note with it: compared with PS8. The class given is physicochemical.
The subject of data set [3] is mature SREBP-1c. As to the kind of experiment: Hepatic nuclear mature SREBP-1c protein level in PDK inhibitor-treated DIO mice. The class given is in vivo. The settings on record: 40 mg/kg/day by mini-pumps for 5 days.
Data set [4] concerns PDC. Nature of the data set: PDC flux in perfused hearts from DIO mice by hyperpolarized 13C NMR. The note with it: single dose 70 mg/kg IP, 8-hr.
Method: Metabolism of [1-^13C]pyruvate to [1-^13C]alanine, [1-^13C]lactate, H^13CO3^− and ^13CO2 were detected in real time by ^13C NMR spectra, following the injection of 2 mM HP [1-^13C]pyruvate into perfused heart (FIG. 10A).
Data set [5] has as its system HeLa cells. The note with it: read-out: IC50 for the growth inhibition of HeLa cells.
Data set [6] concerns the target PDK2 (Homo sapiens, UniProt Q15119). Nature of the data set: Isothermal titration calorimetry (ITC), binding to PDK2. On the set-up: made in house. The note with it: ITC; read-out: Kd, nM for PDK2. How it is done: Recombinant human PDK2 was expressed and purified as a N terminal His6-tagged SUMO fusion protein with a tobacco-etch-virus protease (TEV) cleavage site in front of the N-terminal PDK2 sequence (26), and was used directly for the activity assay and binding affinity analyses. […] The purified protein was concentrated to 35-40 mg/ml and stored at −80° C. in small aliquots. Recombinant human PDK1, PDK3 and PDK4 were expressed and purified as described previously (26).
(§1) The PDK2 or Hsp90 N-terminal domain protein was dialyzed against one liter of the dialysis buffer containing 50 mM Tris-Cl, pH 7.5, 50 mM KCl, 1 mM MgCl2, and 0.5 mM β-mercaptoethanol. […] All of the ITC data were initially analyzed by the NITPIC program (32) to construct the baseline, followed by curve-fitting in Origin 7 to obtain binding parameters.

Data set [7] concerns the target PDK3 (Homo sapiens, UniProt Q15120). Nature of the data set: Assay for inhibition of PDK activity, PDK3. The note with it: absence of E2/E3BP core (−). On the set-up: made in house. The class given is biochemical. How it is done: (§2) Recombinant human PDK2 was expressed and purified as a N terminal His6-tagged SUMO fusion protein with a tobacco-etch-virus protease (TEV) cleavage site in front of the N-terminal PDK2 sequence (26), and was used directly for the activity assay and binding affinity analyses. For crystallization, the protein was subjected to a TEV-protease digestion, and the untagged PDK2 protein was purified on a Superdex 200 column in 20 mM Tris-HCl (pH 8.0), 150 mM NaCl and 5 mM DTT. The purified protein was concentrated to 35-40 mg/ml and stored at −80° C. in small aliquots. Recombinant human PDK1, PDK3 and PDK4 were expressed and purified as described previously (26).
(§3) . The remaining steps were described previously (26). IC50 values were obtained by the curve fitting of inhibition isotherms using Prism 6 (GraphPad software, Inc.).

Data set [8] is described as follows: Pharmacokinetic studies in mice after IP dosing. The class given is in vivo. The note with it: 70 mg/kg IP, male C57BL/6J mice, plasma. The protocol:
Twenty-one male C57BL/6J mice were dosed IP with 70 mg/kg PS-10, 0.2 ml/mouse formulated as 10% DMSO/20% water/70% of 25% (2-hydroxypropyl)-β-cyclodextrin for determination of PS-10 PK. Twenty-one female CD-1 mice were dosed IP with 20 mg/kg PS-8, 0.2 ml/mouse formulated as 5% ethanol and 95% of 0.1 M sodium bicarbonate pH 9.0 for determination of PS-8 PK. Animal (n=3) were sacrificed and whole blood was harvested for each time point. Plasma was processed from whole blood by centrifugation of the ACD treated blood for 10′ at 10,000 rpm in a standard centrifuge. The analytical processing of blood samples and pharmacokinetics studies using LC/MS/MS were as described previously with LC/MS/MS methods optimized for detection of PS-10 and PS-8 (33).

In data set [9] the target is T1, N-terminal domain of human Hsp90 (Homo sapiens, UniProt P07900).
T1 construct: the N-terminal domain (residue 1-236) of human Hsp90; His6 (N); SUMO (N); made in house; host or cells: E. coli BL21
Nature of the data set: Isothermal titration calorimetry (ITC), binding to Hsp90 N-terminal domain. The settings on record: read-out: Kd, nM for Hsp 90. The protocol: The sequence encoding the N-terminal domain was amplified and cloned into the pSUMO expression vector (Lifesensors, Malvern, Pa.). The fusion protein of His6-tagged SUMO-Hsp90 N-terminal domain was expressed in E. coli BL21 cells and purified with Ni-NTA resin (Qiagen) and on Superdex-200 column in 20 mM Tris.HCl, pH 7.5 and 500 mM NaCl.
as §1

Data set [10] concerns the target T2, human PDK1 (Homo sapiens, UniProt Q15118).
T2 construct: made in house
As to the kind of experiment: Assay for inhibition of PDK activity, PDK1. The settings on record: absence of E2/E3BP core (−). The class given is biochemical. The protocol:
as §2, §3

T2 sequence (Q15118 29-436): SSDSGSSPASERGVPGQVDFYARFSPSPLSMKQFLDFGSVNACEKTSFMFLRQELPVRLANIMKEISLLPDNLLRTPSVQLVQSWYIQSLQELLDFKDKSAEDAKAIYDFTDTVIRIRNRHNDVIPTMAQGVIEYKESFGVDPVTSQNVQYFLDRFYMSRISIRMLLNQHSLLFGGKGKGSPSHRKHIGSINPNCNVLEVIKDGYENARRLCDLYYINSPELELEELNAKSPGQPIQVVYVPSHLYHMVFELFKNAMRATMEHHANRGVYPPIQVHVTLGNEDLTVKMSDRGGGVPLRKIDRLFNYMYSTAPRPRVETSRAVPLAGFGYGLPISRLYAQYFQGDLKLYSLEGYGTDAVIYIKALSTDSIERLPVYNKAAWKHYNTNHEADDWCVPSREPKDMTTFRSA
Sequence of PDK3 (Q15120 whole entry, the tested form may be a part): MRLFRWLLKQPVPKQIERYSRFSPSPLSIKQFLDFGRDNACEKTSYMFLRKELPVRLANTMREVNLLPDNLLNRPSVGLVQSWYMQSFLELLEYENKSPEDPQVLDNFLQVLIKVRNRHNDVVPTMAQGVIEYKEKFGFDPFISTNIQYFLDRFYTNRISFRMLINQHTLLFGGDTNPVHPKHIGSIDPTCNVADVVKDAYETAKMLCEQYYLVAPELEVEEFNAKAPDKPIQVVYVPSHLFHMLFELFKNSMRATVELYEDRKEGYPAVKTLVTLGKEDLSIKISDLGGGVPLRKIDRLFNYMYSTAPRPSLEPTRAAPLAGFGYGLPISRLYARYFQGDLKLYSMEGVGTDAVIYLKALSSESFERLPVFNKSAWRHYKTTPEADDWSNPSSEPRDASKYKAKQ

Take `O=S(=O)(c1ccc(O)cc1O)N1Cc2cc(O)cc(O)c2C1` [PS10, 2-((2,4-dihydroxyphenyl)sulfonyl)isoindoline-4,6-diol]: in data set [1], the “amounts of the phosphorylated E1α subunit in heart and liver vs vehicle-treated” value is “significantly decreased”. Besides, the “solubility in DMSO” value in [2] was “better solubility in DMSO”. For the same compound, in [3], the “protein level of nuclear mature SREBP-1c” value is “unchanged”. Moreover, the “cardiac PDC flux in DIO mice” value in data set [4] is on record as “smaller increase”. The IC50 was determined as 284 µM in data set [5], 21.3 µM in [7] and 2.07 µM in [10]. Further, the Kd in data set [6] was determined as 239 nM; in data set [9], 47000 nM. Moreover, the CL/F in data set [8] came to 0.741 mL/min. Besides, in [8] (mouse), the AUC(0-t) was 31800 ng·h/mL. In data set [8] (mouse), the Cmax came to 32400 ng/mL. Besides, the Tmax in [8] (mouse) was 0.167 h. In data set [8] (mouse, read-out: Terminal T1/2), the half-life stood at 2.68 h. The Vd/F in data set [8] (mouse, read-out: Vz/F) came out at 0.172 L.
